Reference: a melting point compilation (Tetko et al.; mined from patent text by program, amines drawn as free bases though some values may be those of a salt)

| Structure (SMILES) | melting point |
| --- | --- |
| NC(=O)c1sc2nccc(N3CCCN(c4ccccc4Cl)CC3)c2c1N | 206 to 210 °C |
| COc1ccccc1Oc1c(NS(=O)(=O)c2ccc(C(C)(C)C)cc2)nc(-c2ncccn2)nc1OCCOc1ccc(C(C)=O)cc1 | 169 to 172 °C |
| CS(=O)(=O)c1ccc(-c2coc3ccc(-c4nnc(N)o4)cc23)cc1 | 274 to 275 °C |
| O=C(O)C1=Cc2cc(Cl)cc(-c3ccccc3)c2OC1C(F)(F)F (stereo not drawn) | 196 to 198 °C |
| Cc1cccc(SCCC(=O)O)c1 | 73 to 75.5 °C |
| O=C1Cc2cc3c(cc2C(c2cccc([N+](=O)[O-])c2)=NN1)OCO3 | 251 to 253 °C |
| Cc1oc2ccc(N)cc2c(=O)c1C | 202 to 204 °C |
| CCC(=O)c1cc(C#N)c(=O)[nH]c1CC | 243 to 245 °C |
| CCn1cc(Cc2ccc(C(=O)OC)cc2OC)c2cc(NC(=O)CC3CCCC3)ccc21 | 144 to 146 °C |
| COc1ccc(-c2nc3ccc(C(=O)O)cc3nc2-c2ccc(OC)cc2)cc1 | 284 to 285 °C |
| CCOC(=O)C(Cc1ccc(O)cc1)Oc1ccc(F)cc1 (stereo not drawn) | 80 to 81 °C |
| O=c1ccc(-c2cccc(F)c2)n[nH]1 | 207 to 209 °C |
| O=C(O)c1cn(Cc2ccccc2)c2nc(N3CCNCC3)ncc2c1=O | 250 to 253 °C |
| CC1=C(C#N)C(=C(C#N)C#N)OC1(C)C | 203 °C |
| Nc1nc2cccnc2c2c1nc(CO)n2CC1(O)CCOCC1 | > 250 °C |
| c1nnnn1C1CN2CCC1CC2 (stereo not drawn) | 83 to 84 °C |
| Cc1c(SCCCCS)ccnc1CO | 58 to 63 °C |
| CC(C)C(=O)c1ccc(N2CCN(C)CC2)cc1 | 74 to 76 °C |
| COC(=O)c1ccc(CN2CCN(C(=O)c3ccc(Cl)cc3)CC2)cc1 | 134 to 135 °C |
| COc1ccc(SC(C(=O)NO)C(C)C)cc1 (stereo not drawn) | 119 °C |
| C=CCNc1nc(N2CCCCC2)c2cc([N+](=O)[O-])ccc2n1 | 123 to 124 °C |
| OC(c1ccc2c(c1)COCO2)c1cn(C(c2ccccc2)(c2ccccc2)c2ccccc2)cn1 (stereo not drawn) | 165 to 167 °C |
| Sc1nnc(-c2ccc(Cl)cc2)s1 | 178 °C |

| Structure (SMILES) | melting point |
| --- | --- |
| NC(=S)c1ncn2c1[C@@H]1CCN1C(=O)c1ccccc1-2 | 227 to 230 °C |
| CC(C)(C)c1cc(C2N[C@H](C(=O)O)CS2)cc(C(C)(C)C)c1O (stereo partly drawn) | 163 to 165 °C |
| CSC(=CC(=O)C(F)(F)F)NCc1ccc(Cl)nc1 | 112 °C |
| CCN1CC(NC(=O)c2cc(Cl)c(N)cc2OC)CN1CC | 117 to 119 °C |
| CCOC(=O)C(NC(=O)CNC(=O)CC)C(=O)OCC | 120 to 122 °C |
| N#Cc1ccc(CBr)c(Cl)c1 | 83 to 85 °C |
| CCOC(=O)C1=C(C)NC(C(OCC)OCC)=C(C(=O)OCC)C1c1ccccc1[N+](=O)[O-] (stereo not drawn) | 80 to 81.5 °C |
| CNC(=S)NS(=O)(=O)c1cc2c(cc1OC)OCCC2CNC(=O)c1cc(Cl)ccc1OC (single isomer, unassigned; (+)) | 201 °C |
| CC1CCC(C(C)C)C(C(C#Cc2ccc(Cc3ccc(F)cc3)o2)N(O)C(N)=O)C1 (stereo not drawn) | 154 to 156 °C |
| COC(=O)c1cc(NS(C)(=O)=O)ccc1OC | 82 to 83 °C |
| CCCCCCCCCCNC(=O)CCCCC(=O)OO | 77 to 85 °C |
| Cc1cc(C#CC(C)(C)O)cc(C)c1Oc1ccc([N+](=O)[O-])c(Nc2ccc(C#N)cc2)n1 | 114 to 116 °C |
| O=CNNc1ccnc2c(NC(=O)c3c(Cl)cccc3Cl)cccc12 | 261 to 263 °C |
| CC1(C)OC(=S)Nc2ccc(-c3ccc(C#N)[nH]3)cc21 | 261 to 262 °C |
| OC(CC1CCNCC1)(c1ccc(F)cc1)c1ccc(F)cc1 | 169 to 171 °C |
| Cc1ccc(O)c(-c2ccc(Br)cc2)n1 | 196 to 199 °C |
| O=C(Nc1ccccc1)Nc1ccnc(Br)c1 | 188 to 189 °C |
| CCCCCCCCCCCCc1cc2cc(C(=O)OCCCC)ccc2[nH]1 | 74 to 76 °C |
| CC(=O)OC1CSC(Oc2ccc(C(=O)NCc3ccccc3)nc2)C(OC(C)=O)C1OC(C)=O (stereo not drawn) | 177 to 178 °C |
| CSC1C(=O)Nc2c(Nc3ccc(Cl)cc3)cccc21 (stereo not drawn) | 190 to 192 °C |
| Cc1nn(C)c(OC(=O)CCl)c1C(=O)c1ccc(Cl)cc1Cl | 120 to 122 °C |
| COC(=O)CC(NSc1ccccc1[N+](=O)[O-])C(=O)O (stereo not drawn) | 108 to 109 °C |
| CC1CC=C(c2nnn[nH]2)CN1CC(=O)O (stereo not drawn) | 136 to 138 °C |

Next, values leading:

| melting point | Structure (SMILES) |
| --- | --- |
| 113 to 115 °C | CC(C)Cn1c(CCCCNC(=O)Nc2ccccc2)nc2c(N)nc3ccccc3c21 |
| 175 to 176 °C | O=C(O)CCc1cc(OCCCc2cn(-c3ccc(C(F)(F)F)cn3)nc2-c2ccccc2)nn1-c1ccccc1 |
| 180 to 200 °C | CCCCN(C)Cc1[nH]c2ccccc2c1CC1C(=O)N(c2ccccc2)N=C1C (stereo not drawn) |
| 127 to 128 °C | O=S(=O)(c1ccccc1)n1ccc2c(CBr)cccc21 |
| 115 to 116 °C | CCOC(=O)CNc1ncccc1NC(=O)c1ccccc1 |
| 88 to 90 °C | CC(C)(C)OC(=O)COCCCCS(=O)(=O)c1cnc(-c2ccccc2)c(-c2ccccc2)n1 |
| 190 to 195 °C | O=C(O)CCCCSc1nc(-c2ccccc2)c(-c2ccccc2)[nH]1 |
| 276 to 278 °C | O=c1c2c(Cc3cccc(O)c3)n[nH]c2c2cccnc2n1-c1ccccc1 |
| 204 to 206 °C | COc1cc(C(=O)NS(=O)(=O)c2ccccc2Cl)ccc1Cc1c(Cl)n(C)c2ccc(CCNC(=O)N(C)C)cc12 |
| 289 to 291 °C | CCOC(=O)c1cnc(Nc2ccccc2O)[nH]c1=O |
| 210 to 212 °C | O=C(O)[C@H](CCc1ccccc1)NS(=O)(=O)c1ccc2c(c1)sc1ccccc12 |
| 90 to 91 °C | Cn1nc(N)nc1NCCCOc1cccc(CNCc2ccccc2)c1 |
| 96 to 97 °C | CCCOc1ccc2c(c1)C(=O)c1cccc(OC)c1-2 |
| 124 to 127 °C | O=C(Nc1cccc2ccccc12)N(CCCN1CCC(Cc2ccccc2)CC1)c1ccccc1 |
| 155 to 156 °C | CCOc1nn(Cc2ccc(OCc3nc(-c4ccco4)oc3C)nc2)cc1CC(=O)O |
| 149 to 150 °C | CC(C)CCOc1ccc(-c2c(Cl)c(CCl)nc3sc4c(c23)CCN(Cc2ccccc2)C4)cc1 |
| 40.5 to 43.5 °C | OCCOc1cccc(OCc2ccccc2)c1 |
| 158 to 160 °C | COc1ccc(C(C)(C)C)cc1NC(=S)Nc1cccc2ccccc12 |
| 81 to 82 °C | CC(C)(C)c1ccc(CCOc2ccnc3c(F)cccc23)cc1 |
| 118 °C | O=c1ncc(Cl)cn1C(SCc1ccccc1)c1ccccc1 (stereo not drawn) |
| 109 to 111 °C | CC(C)(C)OC(=O)C1=C(c2ccccc2)C(c2ccccc2)OC1=O (stereo not drawn) |
| 126 to 132 °C | Cc1c(Cc2ccccc2)c(=O)n(Cc2ccc(F)cc2)c2cc(OCc3nnn[nH]3)cc(OCc3nnn[nH]3)c12 |
